Here are results for one compound from patent US20170056423A1 (Gilead Sciences, Inc., priority 2012, published 2017).

For data set [1] the following is noted: 25 mg level.
Experimental: In order to provide a robust assessment of pharmacokinetic comparisons between test versus reference treatments, a balanced Williams 4×4 design was used in each cohort.
The evaluation used two cohorts of twenty patients. In Cohort 1, the following study treatments were administered.
The next data set relates to HIV-1. The conditions noted are these: against HIV-1 in T cells, activated PBMCs, and macrophages.
The next data set has as its target UGT1A1 (Homo sapiens, UniProt P22309). The settings on record: at concentrations up to 50 μM.
Data set [2] has as its system cytochrome P450 enzymes (all isoforms tested). Put plainly: in vitro. The settings on record: human.
Data set [3] deals with human pregnane X receptor (Homo sapiens, UniProt O75469). In words: pregnane X receptor activation.
The target of data set [4] is aryl hydrocarbon receptor (Homo sapiens, UniProt P35869). In words: aryl hydrocarbon receptor activation.
The conditions of data set [5]: Study 1, while receiving GS-7340 SA (25 mg).

SMILES strings stand for the structures. Where two headings read alike, the source gives them in different places.

For orientation: IC50 means the midpoint of a concentration-inhibition curve. Read a high IC50 as weaker potency.

human pregnane X receptor, sequence (O75469 whole entry): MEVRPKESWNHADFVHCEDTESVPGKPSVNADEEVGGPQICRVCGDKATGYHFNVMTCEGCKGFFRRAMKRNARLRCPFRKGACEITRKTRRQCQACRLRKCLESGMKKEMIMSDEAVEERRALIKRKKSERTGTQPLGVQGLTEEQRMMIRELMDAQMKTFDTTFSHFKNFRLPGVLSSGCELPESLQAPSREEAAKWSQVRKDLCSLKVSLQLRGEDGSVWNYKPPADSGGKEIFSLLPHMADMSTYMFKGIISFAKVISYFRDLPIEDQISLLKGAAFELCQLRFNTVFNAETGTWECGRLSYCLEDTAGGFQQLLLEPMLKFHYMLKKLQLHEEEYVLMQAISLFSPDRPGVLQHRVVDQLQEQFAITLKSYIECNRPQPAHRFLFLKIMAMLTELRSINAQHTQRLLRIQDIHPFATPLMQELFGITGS
UGT1A1, sequence (P22309 26-533): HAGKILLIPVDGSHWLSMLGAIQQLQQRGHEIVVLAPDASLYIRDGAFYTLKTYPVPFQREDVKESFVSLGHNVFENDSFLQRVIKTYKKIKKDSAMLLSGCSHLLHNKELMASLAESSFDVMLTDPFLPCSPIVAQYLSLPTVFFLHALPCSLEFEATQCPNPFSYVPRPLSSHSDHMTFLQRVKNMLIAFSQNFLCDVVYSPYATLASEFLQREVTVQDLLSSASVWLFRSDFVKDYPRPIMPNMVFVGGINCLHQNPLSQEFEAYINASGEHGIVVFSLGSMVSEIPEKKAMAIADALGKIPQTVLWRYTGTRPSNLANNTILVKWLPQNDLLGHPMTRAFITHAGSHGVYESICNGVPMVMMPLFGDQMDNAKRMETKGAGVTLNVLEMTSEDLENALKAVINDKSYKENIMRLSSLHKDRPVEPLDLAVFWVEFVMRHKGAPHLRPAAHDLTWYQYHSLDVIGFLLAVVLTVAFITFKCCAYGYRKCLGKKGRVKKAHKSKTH
aryl hydrocarbon receptor, sequence (P35869 11-848, species assumed): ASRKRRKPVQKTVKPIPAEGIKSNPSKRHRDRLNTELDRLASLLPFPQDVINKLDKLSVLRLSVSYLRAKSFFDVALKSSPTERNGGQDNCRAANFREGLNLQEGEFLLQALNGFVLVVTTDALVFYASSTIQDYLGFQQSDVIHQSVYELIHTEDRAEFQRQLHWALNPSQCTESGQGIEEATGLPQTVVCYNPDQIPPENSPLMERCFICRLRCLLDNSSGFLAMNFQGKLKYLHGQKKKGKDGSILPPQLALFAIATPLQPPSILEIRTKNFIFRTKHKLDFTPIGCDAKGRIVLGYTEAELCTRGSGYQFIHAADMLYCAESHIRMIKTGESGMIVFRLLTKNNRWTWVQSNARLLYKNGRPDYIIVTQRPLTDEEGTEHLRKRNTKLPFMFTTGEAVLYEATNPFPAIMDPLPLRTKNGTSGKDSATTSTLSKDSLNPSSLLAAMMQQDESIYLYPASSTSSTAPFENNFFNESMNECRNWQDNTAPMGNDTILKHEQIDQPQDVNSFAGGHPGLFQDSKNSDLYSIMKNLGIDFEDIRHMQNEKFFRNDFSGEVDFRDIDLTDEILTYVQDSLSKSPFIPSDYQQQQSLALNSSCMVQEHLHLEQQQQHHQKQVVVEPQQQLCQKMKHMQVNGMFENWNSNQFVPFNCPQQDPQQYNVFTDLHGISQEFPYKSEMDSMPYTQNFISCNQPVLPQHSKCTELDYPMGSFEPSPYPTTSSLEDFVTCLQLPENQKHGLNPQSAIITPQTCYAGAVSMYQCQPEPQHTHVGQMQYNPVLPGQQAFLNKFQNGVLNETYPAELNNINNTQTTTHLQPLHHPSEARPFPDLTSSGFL

For `CC(C)OC(=O)[C@H](C)N[P@](=O)(CO[C@H](C)Cn1cnc2c(N)ncnc21)Oc1ccccc1` [GS-7340, 9-[(R)-2-[[(S)-[[(S)-1-(isopropoxycarbonyl)ethyl]amino]phenoxyphosphinyl]methoxy]propyl]adenine], the “GS-7340 levels, fold higher when administered with cobicistat” value in data set [1] (Cohort 1 (Formulation 1, monolayer), FIG. 6) is recorded as 2.2 fold; in data set [1] (Cohort 2 (Formulation 2, bilayer), FIG. 7), 2.2 fold. Besides, in the data set with HIV-1, the “enhanced anti-HIV activity relative to tenofovir” value is reported as 500- to 1000 fold. Besides, at UGT1A1, the “inhibition of UGT1A1 function” value is given as “does not inhibit”. For the same compound, the IC50 in data set [2] is more than 7 µM. In addition, the “activation of human pregnane X receptor” value in data set [3] was “not an activator”. In addition, the “activation of aryl hydrocarbon receptor” value in data set [4] is “not an activator”. In data set [5], the “adverse event leading to one discontinuation” value is “rhabdomyolysis (Grade 2)”.
